Assay results reported in ChEMBL document CHEMBL2074344, “Active efflux of the 5-HT(1A) receptor agonist flesinoxan via P-glycoprotein at the blood-brain barrier” (Eur J Pharm Sci, 2001).

Assays:
[1] = biological target: ATP-dependent translocase ABCB1 (Homo sapiens, UniProt P08183); assay: TP_TRANSPORTER: transepithelial transport (basal to apical) in MDR1-expressing LLC-PK1 cells; type: functional, cell-based; conditions: pig
[2] = biological target: ATP-dependent translocase ABCB1 (Mus musculus, UniProt P21447); assay: TP_TRANSPORTER: increase in brain concentration in mdr1a(-/-) mouse; type: functional, organism-based; conditions: in vivo
Sequence of ATP-dependent translocase ABCB1 (Mus musculus, UniProt P21447) (P21447 whole entry): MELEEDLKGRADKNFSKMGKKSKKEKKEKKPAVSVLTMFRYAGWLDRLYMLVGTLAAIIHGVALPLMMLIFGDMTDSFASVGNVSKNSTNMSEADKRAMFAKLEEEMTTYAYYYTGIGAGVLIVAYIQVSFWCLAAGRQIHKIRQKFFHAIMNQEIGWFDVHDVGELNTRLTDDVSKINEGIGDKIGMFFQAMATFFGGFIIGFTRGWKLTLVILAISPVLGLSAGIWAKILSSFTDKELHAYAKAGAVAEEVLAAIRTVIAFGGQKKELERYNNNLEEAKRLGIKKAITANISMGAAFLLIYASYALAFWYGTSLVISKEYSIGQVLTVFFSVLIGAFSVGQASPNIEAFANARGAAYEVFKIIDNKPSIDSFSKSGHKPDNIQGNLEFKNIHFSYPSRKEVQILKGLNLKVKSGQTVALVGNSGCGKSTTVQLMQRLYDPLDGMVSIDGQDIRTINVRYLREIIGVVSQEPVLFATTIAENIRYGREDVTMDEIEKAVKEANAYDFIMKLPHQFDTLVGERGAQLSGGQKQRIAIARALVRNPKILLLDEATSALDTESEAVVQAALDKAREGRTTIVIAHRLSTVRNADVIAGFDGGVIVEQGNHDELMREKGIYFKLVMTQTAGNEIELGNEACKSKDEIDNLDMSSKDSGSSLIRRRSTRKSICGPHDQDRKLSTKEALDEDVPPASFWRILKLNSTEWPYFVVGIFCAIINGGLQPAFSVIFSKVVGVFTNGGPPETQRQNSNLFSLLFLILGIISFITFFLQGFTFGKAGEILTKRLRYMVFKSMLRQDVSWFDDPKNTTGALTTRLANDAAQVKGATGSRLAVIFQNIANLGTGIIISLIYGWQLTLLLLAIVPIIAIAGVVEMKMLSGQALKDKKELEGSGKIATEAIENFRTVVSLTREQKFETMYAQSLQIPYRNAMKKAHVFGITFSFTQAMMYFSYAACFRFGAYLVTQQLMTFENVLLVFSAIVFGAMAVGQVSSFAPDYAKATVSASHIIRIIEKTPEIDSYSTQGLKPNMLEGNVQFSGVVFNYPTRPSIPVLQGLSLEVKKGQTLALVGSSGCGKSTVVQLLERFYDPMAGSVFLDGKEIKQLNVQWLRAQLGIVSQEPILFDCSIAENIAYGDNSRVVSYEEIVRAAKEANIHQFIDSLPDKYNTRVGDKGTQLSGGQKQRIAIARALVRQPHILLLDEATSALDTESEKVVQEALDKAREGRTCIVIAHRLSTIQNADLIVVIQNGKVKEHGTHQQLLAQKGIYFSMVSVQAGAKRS

Sequence of ATP-dependent translocase ABCB1 (Homo sapiens, UniProt P08183) (P08183 whole entry): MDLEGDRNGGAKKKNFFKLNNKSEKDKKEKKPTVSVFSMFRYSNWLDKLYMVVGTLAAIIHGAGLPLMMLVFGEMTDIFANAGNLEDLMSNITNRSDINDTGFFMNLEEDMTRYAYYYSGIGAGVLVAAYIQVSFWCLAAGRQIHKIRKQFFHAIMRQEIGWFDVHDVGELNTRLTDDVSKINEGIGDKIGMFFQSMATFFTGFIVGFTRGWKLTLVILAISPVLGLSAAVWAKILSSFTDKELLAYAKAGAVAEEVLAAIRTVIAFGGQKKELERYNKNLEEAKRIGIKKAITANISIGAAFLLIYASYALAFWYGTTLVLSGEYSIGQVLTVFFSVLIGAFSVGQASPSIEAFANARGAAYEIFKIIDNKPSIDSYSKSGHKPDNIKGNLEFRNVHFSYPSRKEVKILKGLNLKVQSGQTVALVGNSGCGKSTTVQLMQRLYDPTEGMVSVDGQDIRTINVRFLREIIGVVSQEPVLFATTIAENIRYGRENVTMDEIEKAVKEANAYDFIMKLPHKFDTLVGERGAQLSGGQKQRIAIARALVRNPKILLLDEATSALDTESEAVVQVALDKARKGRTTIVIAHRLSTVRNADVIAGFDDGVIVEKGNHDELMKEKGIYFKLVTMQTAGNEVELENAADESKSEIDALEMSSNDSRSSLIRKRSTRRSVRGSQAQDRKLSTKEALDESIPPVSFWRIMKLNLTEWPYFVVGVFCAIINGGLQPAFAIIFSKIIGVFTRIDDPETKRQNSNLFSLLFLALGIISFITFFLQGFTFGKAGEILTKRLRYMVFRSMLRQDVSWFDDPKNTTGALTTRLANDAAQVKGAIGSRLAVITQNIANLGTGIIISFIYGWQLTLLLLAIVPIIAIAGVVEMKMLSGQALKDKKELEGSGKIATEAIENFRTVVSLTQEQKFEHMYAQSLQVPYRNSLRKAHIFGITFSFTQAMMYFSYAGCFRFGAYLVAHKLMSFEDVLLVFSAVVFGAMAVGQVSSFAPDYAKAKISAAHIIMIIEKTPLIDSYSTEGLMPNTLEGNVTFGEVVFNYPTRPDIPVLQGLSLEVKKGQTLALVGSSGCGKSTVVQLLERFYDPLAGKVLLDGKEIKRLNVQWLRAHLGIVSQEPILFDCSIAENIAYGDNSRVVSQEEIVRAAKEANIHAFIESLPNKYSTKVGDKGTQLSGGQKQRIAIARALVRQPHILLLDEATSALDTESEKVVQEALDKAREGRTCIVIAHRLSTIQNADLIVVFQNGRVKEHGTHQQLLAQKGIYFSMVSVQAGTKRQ

Question: How did the Activity [1] turn out when O=C(NCCN1CCN(c2cccc3c2OC[C@H](CO)O3)CC1)c1ccc(F)cc1 [FLESINOXAN] was run?
Answer: The Activity was “substrate [+]”.

Question: What about the Activity [2] of the same compound?
Answer: Its Activity is “substrate [+]”.
